# Measured values reported in patent publication US8624034B2, “Fluoro-pyridinone derivatives useful as antibacterial agents” (Pfizer Inc., priority 2011, dated 2014).
# Legend:
# [1] = molecular target: T1, Pseudomonas aeruginosa LpxC enzyme (Pseudomonas aeruginosa, UniProt P47205); experiment: IC50 assay, LpxC enzyme from P. aeruginosa (PA LpxC enzyme IC50); format: biochemical; details: Table 3; LpxC enzyme 0.1 nM, 25° C., 1 hour; read-out: PA:IC50
# T1 construct: made in house; host or cells: E. coli
# T1 sequence (P47205 1-303): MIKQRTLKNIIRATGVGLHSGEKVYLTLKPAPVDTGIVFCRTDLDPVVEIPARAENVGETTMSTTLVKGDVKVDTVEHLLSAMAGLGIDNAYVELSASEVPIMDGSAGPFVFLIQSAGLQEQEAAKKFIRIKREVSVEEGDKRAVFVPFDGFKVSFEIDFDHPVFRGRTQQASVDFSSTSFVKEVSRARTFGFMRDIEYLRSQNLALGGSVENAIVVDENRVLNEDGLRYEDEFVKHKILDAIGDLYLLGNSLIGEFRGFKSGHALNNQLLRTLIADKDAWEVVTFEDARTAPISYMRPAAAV
# Protocol: In order to assess the compounds biological activity, selected in vitro assays were conducted on selected compounds. One of the assays measured the compounds ability to disrupt the synthesis of lipopolysaccharide, LPS, which is a component of the outer membrane of Gram-negative bacteria. Disruption of this synthesis is lethal to the bacteria. The assay determined the compound's ability to inhibit LpxC, which is the first enzyme in the biosynthetic pathway for LPS (measured as IC50). Additionally, MICs (minimal inhibitory concentrations) were determined for several bacteria. The specific protocols are described below:
# A) IC50 Assay, LpxC Enzyme from P. aeruginosa (Labeled as PA LpxC Enzyme IC50):
# At the end of 1 hour, 5 ul of 1 N HCl was added to stop the enzyme reaction, the plates were centrifuged, and then processed with the BioTrove Rapidfire HTMS Mass Spectrometry System. A no-enzyme control was used in calculating the IC50 values from the percent conversion values.
# [2] = tested on: Acinetobacter baumannii/haemolyticus, multidrug-resistant clinical isolate (AB-3167); experiment: MIC determination, AB-3167; format: cell-based; details: Table 3, lower of duplicate values
# Protocol: (§1) The in vitro antibacterial activity of compounds described in the Examples was evaluated by minimum inhibitory concentration (MIC) testing according to Clinical and Laboratory Standards Institute (CLSI). See: Clinical and Laboratory Standards Institute. Methods for Dilution Antimicrobial Susceptibility Tests for Bacteria that Grow Aerobically; Approved Standard-Eighth Edition. CLSI document M7-A8 [ISBN 1-56238-689-1]. Clinical and Laboratory Standards Institute, 940 West Valley Road, Suite 1400, Wayne, Pa. 19087-1898 USA, 2006; also Clinical and Laboratory Standards Institute. Performance Standards for Antimicrobial Susceptibility Testing; Twentieth Informational Supplement. CLSI document M100-S20 [ISBN 1-56238-716-2]. Clinical and Laboratory Standards Institute.
# (§2) The MIC determination is a standard laboratory method for evaluating the antibacterial activity of a compound. The MIC represents the lowest drug concentration that inhibits visible growth of bacteria following overnight incubation. […] Typically, the drug concentration range is broken down into 2-fold increments (e.g. 0.06 μg/mL, 0.12 μg/mL. 0.25 μg/mL, 0.50 μg/mL, 1.0 μg/mL, etc.) and the various drug concentrations are all individually incubated overnight with approximately the same number of bacteria. The MIC is then determined by visually inspecting the drug effect at each concentration, and identifying the lowest drug concentration that has inhibited bacterial growth as compared to the drug free control. Typically, bacteria continue to grow at drug concentrations lower than the MIC and don't grow at concentrations at and above the MIC.
# (§3) The MIC values described in Table 2 and 3 below were derived from assays wherein each test compound was evaluated in duplicate. In cases where the duplicate values varied by 0-2-fold, the lower of the two values was reported below. Generally speaking, if the duplicate values varied by more than 2-fold, the assay was considered non-valid and was repeated until the variation between duplicate runs was ≦2-fold. In line with the CLSI guidelines referred to above, both control organisms and reference compounds were utilized in each MIC assay to provide proper quality control. MIC values generated with these control organisms and reference compounds were required to fall within a defined range for the assay to be considered valid and be included herein. Those skilled in the art will recognize that MIC values can and do vary from experiment to experiment. Generally speaking, it should be recognized that MIC values often vary +/−2-fold from experiment to experiment. While a single MIC is reported for each compound and each microorganism, the reader should not conclude that each compound was only tested once. Several of the compounds were subjected to multiple tests. The data reported in Tables 2 and 3 is reflective of the compounds relative activity and different MICs may have been generated on these occasions in line with the guidelines described above.
# (§4) The following bacterial strains were used in these MIC determinations:
# 2) Acinetobacter baumannii/haemolyticus: Multidrug-resistant clinical isolate labeled as AB-3167 in Tables 2 and 3;
# [3] = tested on: Escherichia coli EC-1: VOGEL, mouse virulent; experiment: MIC determination, EC-1; format: cell-based; details: Escherichia coli, read-out: EC-1 (MIC), Table 3, lower of duplicate values
# Protocol: as §1, §2, §3, §4
# 3) Escherichia coli EC-1: VOGEL, mouse virulent labeled as EC-1 in Tables 2 and 3;
# [4] = tested on: PA:UC12120; experiment: MIC determination, PA:UC12120 (Table 3); format: cell-based, Pseudomonas aeruginosa; details: Pseudomonas aeruginosa, UC12120, Table 3, lower of duplicate values
# Protocol: as §1, §2, §3
# In Table 3 below, column 1 corresponds to the Example number, column 2 provides the IUPAC name, columns 3-6 provide in vitro biological data generated in the same manner as in Table 2, columns 7 and 8 provide the retention times and mass spectra generated via LCMS, using the method described below. All data is not currently available for all compounds, as indicated by a blank cell in Table 3.
Compound,IC50 [1] [nM],MIC [2] [µg/mL],MIC [3] [µg/mL],MIC [4] [µg/mL]
"COc1ncccc1-c1cc(=O)n(CCC(C)(C(=O)NO)S(C)(=O)=O)cc1F (stereo not drawn) [Example 69, 4-(5′-fluoro-2-methoxy-2′-oxo-3,4′-bipyridin-1′(2′H)-yl)-N-hydroxy-2-methyl-2-(methylsulfonyl)butanamide]",16.6,> 64,64,8
"CC(CCn1cc(F)c(-c2ccc3c(c2)C(=O)NC3)cc1=O)(C(=O)NO)S(C)(=O)=O (stereo not drawn) [Example 50, 4-[5-fluoro-2-oxo-4-(3-oxo-2,3-dihydro-1H-isoindol-5-yl)pyridin-1(2H)-yl]-N-hydroxy-2-methyl-2-(methylsulfonyl)butanamide]",68.2,> 64,> 64,> 64
"COc1ccc(-c2cc(=O)n(CCC(C)(C(=O)NO)S(C)(=O)=O)cc2F)cc1OC (stereo not drawn) [Example 98, 4-[4-(3,4-dimethoxyphenyl)-5-fluoro-2-oxopyridin-1(2H)-yl]-N-hydroxy-2-methyl-2-(methylsulfonyl)butanamide]",28.5,> 64,64,32
"CC(CCn1cc(F)c(-c2ccc(Cl)cn2)cc1=O)(C(=O)NO)S(C)(=O)=O (stereo not drawn) [Example 90, 4-(5-chloro-5′-fluoro-2′-oxo-2,4′-bipyridin-1′(2′H)-yl)-N-hydroxy-2-methyl-2-(methylsulfonyl)butanamide]",12.5,> 64,64,16
"COCc1cccc(-c2cc(=O)n(CCC(C)(C(=O)NO)S(C)(=O)=O)cc2F)c1 (stereo not drawn) [Example 93, 4-{5-fluoro-4-[3-(methoxymethyl)phenyl]-2-oxopyridin-1(2H)-yl}-N-hydroxy-2-methyl-2-(methylsulfonyl)butanamide]",14.2,> 64,32,8
"COC(C)c1ccc(-c2cc(=O)n(CCC(C)(C(=O)NO)S(C)(=O)=O)cc2F)cc1 (stereo not drawn) [Example 88, 4-{5-fluoro-4-[4-(1-methoxyethyl)phenyl]-2-oxopyridin-1(2H)-yl}-N-hydroxy-2-methyl-2-(methylsulfonyl)butanamide]",7.6,> 64,16,4
"CC(CCn1cc(F)c(-c2ccc(C#N)c(F)c2)cc1=O)(C(=O)NO)S(C)(=O)=O (stereo not drawn) [Example 58, 4-[4-(4-cyano-3-fluorophenyl)-5-fluoro-2-oxopyridin-1(2H)-yl]-N-hydroxy-2-methyl-2-(methylsulfonyl)butanamide]",2.6,> 64,32,8
"COc1cc(C#N)ccc1-c1cc(=O)n(CCC(C)(C(=O)NO)S(C)(=O)=O)cc1F (stereo not drawn) [Example 101, 4-[4-(4-cyano-2-methoxyphenyl)-5-fluoro-2-oxopyridin-1(2H)-yl]-N-hydroxy-2-methyl-2-(methylsulfonyl)butanamide]",5.2,> 64,64,8
"CC(CCn1cc(F)c(-c2ccc(Cl)c(C#N)c2)cc1=O)(C(=O)NO)S(C)(=O)=O (stereo not drawn) [Example 102, 4-[4-(4-chloro-3-cyanophenyl)-5-fluoro-2-oxopyridin-1(2H)-yl]-N-hydroxy-2-methyl-2-(methylsulfonyl)butanamide]",2.1,> 64,4,4
"COCc1ccccc1-c1cc(=O)n(CCC(C)(C(=O)NO)S(C)(=O)=O)cc1F (stereo not drawn) [Example 110, 4-{5-fluoro-4-[2-(methoxymethyl)phenyl]-2-oxopyridin-1(2H)-yl}-N-hydroxy-2-methyl-2-(methylsulfonyl)butanamide]",> 100,> 64,> 64,> 64
"CC(CCn1cc(F)c(-c2ccc(Cl)c(O)c2)cc1=O)(C(=O)NO)S(C)(=O)=O (stereo not drawn) [Example 109, 4-[4-(4-chloro-3-hydroxyphenyl)-5-fluoro-2-oxopyridin-1(2H)-yl]-N-hydroxy-2-methyl-2-(methylsulfonyl)butanamide]",7.3,> 64,32,32
"COc1ccc(OC)c(-c2cc(=O)n(CCC(C)(C(=O)NO)S(C)(=O)=O)cc2F)c1 (stereo not drawn) [Example 54, 4-[4-(2,5-dimethoxyphenyl)-5-fluoro-2-oxopyridin-1(2H)-yl]-N-hydroxy-2-methyl-2-(methylsulfonyl)butanamide]",> 100,> 64,> 64,> 64
"CN1Cc2cc(-c3cc(=O)n(CCC(C)(C(=O)NO)S(C)(=O)=O)cc3F)ccc2C1=O (stereo not drawn) [Example 64, 4-[5-fluoro-4-(2-methyl-1-oxo-2,3-dihydro-1H-isoindol-5-yl)-2-oxopyridin-1(2H)-yl]-N-hydroxy-2-methyl-2-(methylsulfonyl)butanamide]",7.2,> 64,> 64,64
"CC(CCn1cc(F)c(-c2cc(F)cc(Cl)c2)cc1=O)(C(=O)NO)S(C)(=O)=O (stereo not drawn) [Example 56, 4-[4-(3-chloro-5-fluorophenyl)-5-fluoro-2-oxopyridin-1(2H)-yl]-N-hydroxy-2-methyl-2-(methylsulfonyl)butanamide]",2,> 64,8,2
"CC(CCn1cc(F)c(-c2ccc(F)c(CO)c2)cc1=O)(C(=O)NO)S(C)(=O)=O (stereo not drawn) [Example 105, 4-{5-fluoro-4-[4-fluoro-3-(hydroxymethyl)phenyl]-2-oxopyridin-1(2H)-yl}-N-hydroxy-2-methyl-2-(methylsulfonyl)butanamide]",,> 64,> 64,> 64
"CC(CCn1cc(F)c(-c2cccc(CO)c2F)cc1=O)(C(=O)NO)S(C)(=O)=O (stereo not drawn) [Example 122, 4-{5-fluoro-4-[2-fluoro-3-(hydroxymethyl)phenyl]-2-oxopyridin-1(2H)-yl}-N-hydroxy-2-methyl-2-(methylsulfonyl)butanamide]",2.4,,,
"CC(CCn1cc(F)c(-c2cc[nH]n2)cc1=O)(C(=O)NO)S(C)(=O)=O (stereo not drawn) [Example 121, 4-[5-fluoro-2-oxo-4-(1H-pyrazol-3-yl)pyridin-1(2H)-yl]-N-hydroxy-2-methyl-2-(methylsulfonyl)butanamide]",,> 64,> 64,> 64
"CC(CCn1cc(F)c(-c2cccc(CC(N)=O)c2)cc1=O)(C(=O)NO)S(C)(=O)=O (stereo not drawn) [Example 123, 4-{4-[3-(2-amino-2-oxoethyl)phenyl]-5-fluoro-2-oxopyridin-1(2H)-yl}-N-hydroxy-2-methyl-2-(methylsulfonyl)butanamide]",,> 64,> 64,> 64
